Read-outs that look alike come from different tables or passages of the source.
Assays:
GRK5 [1] = target: T1, GRK5 (Homo sapiens, UniProt P34947); experiment: Intact protein MS, adduct formation with GRK5; conditions: for Adduct by MS: incubation time needed to observe adduct formation with GRK5: intact mass MS; for covalent adduct formation with GRK5 (in words): intact MS
GRK5 [2] = target: T1, GRK5; experiment: Kinome-wide selectivity panel, GRK5; conditions: read-out: inhibition of GRK5
GRK5 [3] = target: T1, GRK5; experiment: Covalent inhibition kinetic analysis
[4] = Thermodynamic solubility, miniaturized shake-flask; type: physicochemical
[5] = Microsomal stability, HLM; type: in vitro ADME; conditions: human, human liver microsomes
PKA = PKA (Homo sapiens, UniProt P17612); experiment: PKA inhibition assay, ADP-Glo
bovine GRK2 = target: T2, bovine GRK2 (Bos taurus, UniProt P21146); experiment: Radiometric GRK2 inhibition assay; type: biochemical
T2 sequence (P21146 1-689): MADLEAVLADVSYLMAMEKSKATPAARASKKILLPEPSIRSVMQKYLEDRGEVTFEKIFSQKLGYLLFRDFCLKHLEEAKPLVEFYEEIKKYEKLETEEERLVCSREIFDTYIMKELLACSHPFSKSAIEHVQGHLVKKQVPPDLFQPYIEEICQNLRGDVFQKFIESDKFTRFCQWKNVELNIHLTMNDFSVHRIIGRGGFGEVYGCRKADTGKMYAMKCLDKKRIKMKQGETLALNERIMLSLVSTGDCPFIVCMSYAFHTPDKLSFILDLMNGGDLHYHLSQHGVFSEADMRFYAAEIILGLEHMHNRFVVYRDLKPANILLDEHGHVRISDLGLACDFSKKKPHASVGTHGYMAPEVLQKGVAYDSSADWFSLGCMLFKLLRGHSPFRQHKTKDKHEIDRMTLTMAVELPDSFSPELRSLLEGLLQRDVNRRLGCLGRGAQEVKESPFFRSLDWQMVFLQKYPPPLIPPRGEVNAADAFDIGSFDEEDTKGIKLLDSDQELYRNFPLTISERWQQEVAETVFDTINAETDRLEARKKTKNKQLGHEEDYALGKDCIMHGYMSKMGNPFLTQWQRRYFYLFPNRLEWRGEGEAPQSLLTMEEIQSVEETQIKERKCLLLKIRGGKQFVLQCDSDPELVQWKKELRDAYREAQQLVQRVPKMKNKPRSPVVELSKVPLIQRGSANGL

[6] = tested on: rodent model of hypertrophy; conditions: cited from earlier work
[7] = cited from earlier work

T1 sequence (P34947 whole entry): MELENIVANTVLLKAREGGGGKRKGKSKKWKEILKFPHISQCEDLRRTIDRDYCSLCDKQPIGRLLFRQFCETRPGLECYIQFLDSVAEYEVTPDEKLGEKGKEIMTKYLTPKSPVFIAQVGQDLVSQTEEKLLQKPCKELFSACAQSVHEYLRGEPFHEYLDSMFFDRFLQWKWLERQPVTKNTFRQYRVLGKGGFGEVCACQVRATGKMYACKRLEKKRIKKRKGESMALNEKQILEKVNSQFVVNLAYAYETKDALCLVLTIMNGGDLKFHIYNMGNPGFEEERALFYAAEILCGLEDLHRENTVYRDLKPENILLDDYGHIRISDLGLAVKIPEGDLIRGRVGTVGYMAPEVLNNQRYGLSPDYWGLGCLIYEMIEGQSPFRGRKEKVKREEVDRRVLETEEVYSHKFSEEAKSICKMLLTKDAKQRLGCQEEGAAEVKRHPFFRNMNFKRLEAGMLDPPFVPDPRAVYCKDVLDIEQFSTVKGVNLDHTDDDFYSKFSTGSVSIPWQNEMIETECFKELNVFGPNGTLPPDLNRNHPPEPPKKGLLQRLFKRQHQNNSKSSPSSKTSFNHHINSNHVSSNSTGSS

C=CCCNC(=O)c1c(C)[nH]c(/C=C2\C(=O)Nc3ccc(C(=O)N[C@H](C)c4ccccc4)cc32)c1C (mixture of isomers) [Compound 5f, (R,Z)-3-((4-(but-3-en-1-ylcarbamoyl)-3,5-dimethyl-1H-pyrrol-2-yl)methylene)-2-oxo-N-(1-phenylethyl)indoline-5-carboxamide]
Adduct by MS: incubation time needed to observe adduct formation with GRK5 (GRK5 [1]; Table 1): >30 min

CC#CC(=O)Nc1c(C)[nH]c(/C=C2\C(=O)Nc3ccc(C(=O)N[C@H](C)c4ccccc4)cc32)c1C (mixture of isomers) [Compound 9a, (R,Z)-3-((4-(but-2-ynamido)-3,5-dimethyl-1H-pyrrol-2-yl)methylene)-2-oxo-N-(1-phenylethyl)indoline-5-carboxamide]
Adduct by MS: incubation time needed to observe adduct formation with GRK5 (GRK5 [1]; Table 1): >180 min | covalent adduct formation with GRK5 (in words) (GRK5 [1]; 30 min incubation): unreactive

Cc1[nH]c(/C=C2\C(=O)Nc3ccc(C(=O)N[C@H](C)c4ccccc4)cc32)c(C)c1NC(=O)CBr (mixture of isomers) [Compound 9g, (R,Z)-3-((4-(2-bromoacetamido)-3,5-dimethyl-1H-pyrrol-2-yl)methylene)-2-oxo-N-(1-phenylethyl)indoline-5-carboxamide]
Adduct by MS: percent adduct (GRK5 [1]; Table 1, 30 min incubation): 70% 30 min | covalent adduct formation with GRK5 (in words) (GRK5 [1]; 30 min incubation): rapidly reacted with GRK5 | inhibition at 0.01 µM (GRK5 [2]): 50% | kinact (GRK5 [3]): > 0.0167 s⁻¹

Cc1[nH]c(/C=C2\C(=O)Nc3ccc(C(=O)N[C@H](C)c4ccccn4)cc32)c(C)c1NC(=O)CCl (mixture of isomers) [Compound 9l, (R,Z)-3-((4-(2-chloroacetamido)-3,5-dimethyl-1H-pyrrol-2-yl)methylene)-2-oxo-N-(1-(pyridin-2-yl)ethyl)indoline-5-carboxamide]
solubility improvement over 9e [4]: 3.5 fold

Cc1[nH]c(/C=C2\C(=O)Nc3ccc(C(=O)N[C@H](C)c4ccc(F)cc4)cc32)c(C)c1NC(=O)CCl (stereo in doubt) [Compound 9j, (R,Z)-3-((4-(2-chloroacetamido)-3,5-dimethyl-1H-pyrrol-2-yl)methylene)-N-(1-(4-fluorophenyl)ethyl)-2-oxoindoline-5carboxamide]
half-life [5]: 18.9 min

Cc1[nH]c(/C=C2\C(=O)Nc3ccc(C(=O)N[C@@H](c4ccccc4)C(C)C)cc32)c(C)c1NC(=O)CCl (stereo in doubt) [Compound 9s, (R,Z)-3-((4-(2-chloroacetamido)-3,5-dimethyl-1H-pyrrol-2-yl)methylene)-N-(2-methyl-1-phenylpropyl)-2-oxoindoline-5-carboxamide]
IC50 (PKA): > 250 µM | IC50 (bovine GRK2): 23 ± 20 µM

Cc1[nH]c(/C=C2\C(=O)Nc3ccc(C(=O)NC(C)(C)c4ccccc4)cc32)c(C)c1NC(=O)CCl [Compound 9r, (Z)-3-((4-(2-chloroacetamido)-3,5-dimethyl-1H-pyrrol-2-yl)methylene)-2-oxo-N-(2-phenylpropan-2-yl)indoline-5-carboxamide]
IC50 (bovine GRK2): 190 ± 70 µM

NCCCNCCCCNCCCNc1cc2nc(-c3ccccc3Cl)[nH]c(=O)c2cc1F [KR-39038]
effect in a rodent model of hypertrophy (in words) [6]: mild positive effects | bioavailability (in words) [7]: low bioavailability | half-life [7]: < 60 min
